PubChem BioAssay (NCI)
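Dose response: 5 concentrations. Exposure: 48 h. Format: 96-well plates. Endpoint: linear interpolation; highest concentration if not reached. Here, GI50 denotes the concentration required for 50% inhibition of growth. TGI: total growth inhibition.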

Experiments:
Assay in all cases: DTP human tumour cell line panel, 48 h
[1] = system: BT-549 breast
[2] = system: SK-MEL-5 melanoma
[3] = system: MOLT-4 leukemia
[4] = system: HCT-15 colon
[5] = system: MCF7 breast
[6] = system: SK-MEL-2 melanoma
[7] = system: U251 CNS
[8] = system: PC-3 prostate
[9] = system: 786-0 renal
[10] = system: SK-MEL-28 melanoma
[11] = system: NCI/ADR-RES ovarian
[12] = system: HOP-92 NSCLC
[13] = system: SF-295 CNS
[14] = system: HCC-2998 colon
[15] = system: M14 melanoma
[16] = system: HS 578T breast
[17] = system: A498 renal
[18] = system: RPMI-8226 leukemia
[19] = system: UACC-257 melanoma
[20] = system: OVCAR-3 ovarian
[21] = system: NCI-H522 lung
[22] = system: T-47D breast
[23] = system: MDA-MB-231 breast
[24] = system: NCI-H23 lung
[25] = system: SF-539 CNS
[26] = system: TK-10 renal
[27] = system: IGROV1 ovarian
[28] = system: OVCAR-8 ovarian
[29] = system: NCI-H460 lung
[30] = system: COLO 205 colon
[31] = system: ACHN renal
[32] = system: A549 NSCLC
[33] = system: SW-620 colon
[34] = system: MDA-MB-435
[35] = system: SNB-19 CNS
[36] = system: NCI-H226 lung
[37] = system: HL-60(TB) leukemia
[38] = system: HT29 colon
[39] = system: OVCAR-5 ovarian
[40] = system: RXF 393 renal
[41] = system: SK-OV-3 ovarian
[42] = system: K-562 leukemia
[43] = system: HOP-62 NSCLC
[44] = system: HCT-116 colon
[45] = system: SN12C renal
[46] = system: LOX IMVI melanoma
[47] = system: SNB-75 CNS
[48] = system: DU-145 prostate
[49] = system: KM12 colon
[50] = system: CCRF-CEM leukemia
[51] = system: UACC-62 melanoma
[52] = system: SR leukemia
[53] = system: UO-31 renal
[54] = system: EKVX NSCLC
[55] = system: SF-268 CNS
[56] = system: OVCAR-4 ovarian
[57] = system: CAKI-1 renal

## COc1ccc(CCn2c3c(c4c(O)cccc42)C(=O)c2ccccc2-3)cc1OC
[1]
  GI50: 6.57 µM
  TGI: > 47.7 µM
[2]
  GI50: 18.8 µM
  TGI: > 60.3 µM
[3]
  GI50: 19.9 µM
  TGI: 63.9 µM
[4]
  GI50: 22.5 µM
  TGI: > 73.4 µM
[5]
  GI50: 34.8 µM
  TGI: > 100 µM
[6]
  GI50: 24.1 µM
  TGI: > 95.3 µM
[7]
  GI50: 41.8 µM
  TGI: > 100 µM
[8]
  GI50: 37.4 µM
  TGI: > 100 µM
[9]
  GI50: 36.8 µM
  TGI: > 69.4 µM
[10]
  GI50: > 80.2 µM
  TGI: > 100 µM
[11]
  GI50: 21 µM
  TGI: > 69.2 µM
[12]
  GI50: > 72.5 µM
  TGI: > 100 µM
[13]
  GI50: 30.8 µM
  TGI: > 81.6 µM
[14]
  GI50: 19.5 µM
  TGI: 43.4 µM
[15]
  GI50: 43.3 µM
  TGI: > 84.4 µM
[16]
  GI50: 46.2 µM
  TGI: > 85.4 µM
[17]
  GI50: > 100 µM
  TGI: > 100 µM
[18]
  GI50: 21.2 µM
  TGI: > 70.8 µM
[19]
  GI50: 52.6 µM
  TGI: 98.6 µM
[20]
  GI50: 54.1 µM
  TGI: > 100 µM
[21]
  GI50: 20.8 µM
  TGI: > 60.4 µM
[22]
  GI50: 67.9 µM
  TGI: > 100 µM
[23]
  GI50: 41.5 µM
  TGI: > 90.9 µM
[24]
  GI50: 25.3 µM
  TGI: > 77.7 µM
[25]
  GI50: 6.65 µM
  TGI: > 51.2 µM
[26]
  GI50: 28.6 µM
  TGI: > 74.1 µM
[27]
  GI50: 0.818 µM
  TGI: > 47.4 µM
[28]
  GI50: 34.3 µM
  TGI: > 83.6 µM
[29]
  GI50: 31.2 µM
  TGI: > 96.5 µM
[30]
  GI50: 29.1 µM
  TGI: > 87.3 µM
[31]
  GI50: 13.6 µM
  TGI: > 52.7 µM
[32]
  GI50: 32.9 µM
  TGI: > 100 µM
[33]
  GI50: 31.1 µM
  TGI: > 75.6 µM
[34]
  GI50: 20 µM
  TGI: > 83.7 µM
[35]
  GI50: > 100 µM
  TGI: > 100 µM
[36]
  GI50: > 56.1 µM
  TGI: > 100 µM
[37]
  GI50: 20.3 µM
  TGI: 53 µM
[38]
  GI50: 43.5 µM
  TGI: > 100 µM
[39]
  GI50: > 42 µM
  TGI: > 84.2 µM
[40]
  GI50: > 79 µM
  TGI: > 100 µM
[41]
  GI50: > 100 µM
  TGI: > 100 µM
[42]
  GI50: 12.5 µM
  TGI: 69.7 µM
[43]
  GI50: > 35.6 µM
  TGI: > 59.3 µM
[44]
  GI50: 26.1 µM
  TGI: > 57.5 µM
[45]
  GI50: 50.7 µM
  TGI: > 100 µM
[46]
  GI50: > 45 µM
  TGI: > 73.3 µM
[47]
  GI50: > 100 µM
  TGI: > 100 µM
[48]
  GI50: > 60.6 µM
  TGI: > 100 µM
[49]
  GI50: 22.1 µM
  TGI: > 81.9 µM
[50]
  GI50: 20 µM
  TGI: > 66.8 µM
[51]
  GI50: 21.5 µM
  TGI: > 72.9 µM
[52]
  GI50: 12.9 µM
  TGI: 34 µM
[53]
  GI50: 37.5 µM
  TGI: > 100 µM
[54]
  GI50: 29.3 µM
  TGI: > 94.7 µM
[55]
  GI50: 38.9 µM
  TGI: > 100 µM
[56]
  GI50: 71.8 µM
  TGI: > 100 µM
[57]
  GI50: 36.3 µM
  TGI: > 96.5 µM

## CC(C)(C)c1ccc(C(=O)Nc2sc3c(c2C#N)CCC(=O)C3)cc1
[1]
  GI50: 0.338 µM
  TGI: 16.8 µM
[2]
  GI50: 0.706 µM
  TGI: 1.7 µM
[3]
  GI50: 0.324 µM
  TGI: > 100 µM
[4]
  GI50: 0.281 µM
  TGI: 3.4 µM
[5]
  GI50: 0.32 µM
[6]
  GI50: 0.96 µM
  TGI: 2.91 µM
[7]
  GI50: 0.218 µM
  TGI: > 100 µM
[8]
  GI50: 0.139 µM
[9]
  GI50: 0.769 µM
[10]
  GI50: 0.704 µM
  TGI: 5.67 µM
[11]
  GI50: 0.718 µM
  TGI: 5.75 µM
[12]
  GI50: 1.21 µM
  TGI: 4.76 µM
[13]
  GI50: 0.658 µM
  TGI: > 26.2 µM
[14]
  GI50: 1.25 µM
  TGI: > 100 µM
[15]
  GI50: 0.412 µM
  TGI: > 83.6 µM
[16]
  GI50: 0.339 µM
  TGI: > 20.5 µM
[17]
  GI50: 1.66 µM
  TGI: 5.58 µM
[18]
  GI50: 0.0902 µM
  TGI: 0.495 µM
[19]
  GI50: 0.69 µM
  TGI: 3.47 µM
[20]
  GI50: 0.473 µM
  TGI: 1.63 µM
[21]
  GI50: 0.233 µM
  TGI: 1.36 µM
[22]
  GI50: 0.211 µM
  TGI: 0.905 µM
[23]
  GI50: 0.746 µM
  TGI: 3 µM
[24]
  GI50: 0.443 µM
  TGI: > 100 µM
[25]
  GI50: 0.209 µM
  TGI: 0.936 µM
[26]
  GI50: 0.531 µM
  TGI: 5.08 µM
[27]
  GI50: 0.657 µM
  TGI: > 20.4 µM
[28]
  GI50: 0.643 µM
  TGI: > 100 µM
[29]
  GI50: 0.89 µM
  TGI: > 26 µM
[30]
  GI50: 0.328 µM
  TGI: 0.944 µM
[31]
  GI50: 0.237 µM
  TGI: 0.641 µM
[32]
  GI50: 0.98 µM
  TGI: > 100 µM
[33]
  GI50: 0.105 µM
  TGI: 0.566 µM
[34]
  GI50: 0.873 µM
  TGI: 4.82 µM
[35]
  GI50: 0.406 µM
  TGI: > 100 µM
[36]
  GI50: 0.991 µM
  TGI: 5.74 µM
[37]
  GI50: 0.505 µM
  TGI: 1.95 µM
[38]
  GI50: 0.505 µM
  TGI: 3.83 µM
[39]
  GI50: 0.531 µM
  TGI: 5.78 µM
[40]
  GI50: 0.237 µM
  TGI: 0.796 µM
[41]
  GI50: 2.18 µM
  TGI: 9.94 µM
[42]
  GI50: 0.0874 µM
  TGI: > 71.4 µM
[43]
  GI50: 1.24 µM
  TGI: > 100 µM
[44]
  GI50: 0.122 µM
[45]
  GI50: 0.611 µM
  TGI: > 53.5 µM
[46]
  GI50: 0.262 µM
[47]
  GI50: 0.612 µM
  TGI: 2.6 µM
[48]
  GI50: 5.93 µM
  TGI: > 100 µM
[49]
  GI50: 0.418 µM
  TGI: > 100 µM
[50]
  GI50: 0.0697 µM
  TGI: > 100 µM
[51]
  GI50: 0.347 µM
  TGI: 2.24 µM
[52]
  GI50: 0.149 µM
  TGI: > 38.1 µM
[53]
  GI50: 0.224 µM
  TGI: 0.678 µM
[54]
  GI50: 1.13 µM
  TGI: > 100 µM
[55]
  GI50: 0.625 µM
  TGI: > 100 µM
[56]
  GI50: 0.223 µM
  TGI: 0.687 µM
[57]
  GI50: 0.235 µM
  TGI: 0.793 µM
